According to US20150148538A1, “USE OF AN H4 AGONIST MOLECULE TO TREAT ACUTE LEUKEMIA” (priority 2013, published 2015):

How the values were obtained:
TF1 line = experiment: Proliferation inhibition of TF1 myeloid leukemia line (cell count or XTT test); assay type: cell-based
Description: (§1) The myeloid line is represented by the following clonal malignant cells: the HL60 line and the TF1 line. TF1 constitutively expresses the histamine H4 receptor and proliferates in response to GMCSF.
(§2) Tritoqualine, a mixture of 2 enantiomers, has been tested on this line between 10^−5 and 10^−7M with or without CB 10^−5M addition.
(§3) The TF1 line and the HL60 line are represented by inoculates of 100,000 cells in one milliliter incubated for 3 days with GM-CSF (10 ng/ml).
(§4) The reading is done on the third day and the number of cells in the proliferation phase is measured. […] Normally, all of the cells are in the proliferation phase when the cells are stimulated with GMCSF.
(§5) The results are expressed in proliferation inhibition % (n=3): The result is the Mean of the three tests performed.
(§6) The results are expressed in estimated proliferation inhibition % by cell count or by rock proliferation test. This test measures the incorporation of a dye when the cells are proliferating (XTT test).

Pre T line = experiment: Proliferation inhibition of Pre T lymphoid line (cell count or XTT test); assay type: cell-based
Description: (§7) The lymphoid line is represented by the following clonal malignant cells: the Pre T line and the Pro B line. The cells are cultured using the same technique as the myeloid lines.
(§8) The reading is done on the third day, and the number of cells in the proliferation phase is measured. The ratio between the cells in the proliferation phase and the cells that are not proliferating yields the percentage of cells in inhibition. Normally, all of the cells are in the proliferation phase when the cells are stimulated with GMCSF.
(§9) The results are expressed in proliferation inhibition % (n=3): The result is the Mean of the three tests done.
as §6

Pro B line = experiment: Proliferation inhibition of Pro B lymphoid line (cell count or XTT test); assay type: cell-based
Description: as §7, §8, §9, §6

histamine H4 receptor [1] = biological target: T1, histamine H4 receptor (Homo sapiens, UniProt Q9H3N8); conditions: unit not given; cited from earlier work
HL60 line = experiment: Proliferation inhibition of HL60 myeloid leukemia line (cell count or XTT test); assay type: cell-based; conditions: tritoqualine at 10^-5; 3 days with GM-CSF 10 ng/ml; mean of n=3
Description: as §1, §2, §3, §4, §5, §6

Solubility in water = assay type: physicochemical; conditions: including with fetal calf serum added
Text: We dilute the tritoqualine in dimethyl sulfoxide, also called DMSO.

histamine H4 receptor [2] = biological target: T1, histamine H4 receptor; experiment: Reversal of tritoqualine effect by a histamine H4 antagonist; assay type: cell-based; conditions: with a histamine H4 antagonist; myeloid cells
Text: This appears to indicate that the H4 agonist effect is indeed responsible for the activity of tritoqualine.

[3] = white powder; breaks down into Cotarnine and phthalic acid; cited from earlier work

T1 sequence (Q9H3N8 whole entry, species assumed): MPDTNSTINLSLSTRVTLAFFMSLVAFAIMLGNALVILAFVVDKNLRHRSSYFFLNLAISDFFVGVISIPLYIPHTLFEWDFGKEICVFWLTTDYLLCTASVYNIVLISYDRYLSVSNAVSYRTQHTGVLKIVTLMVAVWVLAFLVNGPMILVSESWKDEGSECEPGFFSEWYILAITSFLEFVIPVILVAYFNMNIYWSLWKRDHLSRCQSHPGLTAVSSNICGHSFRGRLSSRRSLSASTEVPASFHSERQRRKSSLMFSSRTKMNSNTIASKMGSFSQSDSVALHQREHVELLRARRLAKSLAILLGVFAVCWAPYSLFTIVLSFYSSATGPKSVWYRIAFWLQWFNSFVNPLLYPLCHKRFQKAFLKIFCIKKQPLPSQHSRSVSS

Compound	inhibition of proliferation of the myeloid line (in words) (TF1 line; 'this line' (myeloid, TF1), dose of 10^-5M)	blocking of proliferation of Pre T cells (in words) (Pre T line)	blocking of proliferation of Pro B cells (in words) (Pro B line)	affinity (histamine H4 agonist) (histamine H4 receptor [1])	proliferation inhibition % of TF1 cells (TF1 line; tritoqualine at 10^-5, 3 days with GM-CSF 10 ng/ml, mean of n=3)	proliferation inhibition % of HL60 cells (HL60 line) [%]	proliferation inhibition % of Pre T cells (Pre T line; at 10^-5, reading on third day, mean of n=3)	proliferation inhibition % of Pro B cells (Pro B line; at 10^-5, reading on third day, mean of n=3, equal to the control without product) [%]	solubility in water (Solubility in water)	effect of a histamine H4 antagonist on the effect of tritoqualine (histamine H4 receptor [2])	sensitivity to light [3]
NC(=NCc1ccc(Cl)cc1)SCCCc1cnc[nH]1 [Clobenpropit]	inhibits the proliferation	block the proliferation	not	10^−9	–	–	–	–	–	–	–
CCOc1c(N)c2c(c(OCC)c1OCC)C(C1c3c(cc4c(c3OC)OCO4)CCN1C)OC2=O (centres unmarked) [tritoqualine, (AMINO-7 TRIETHOXY-4,5,6 OXO-1 DIHYDRO-1,3 ISOBENZOFURANNYL-3)-1 METHOXY-8 METHYL-2METHYLENEDIOXY-6,7 TETRAHYDRO-,2,3,4 ISOQUINOLEINE]	–	block the proliferation	not	10^−6	approximately 58%	~68	approximately 45%	15	low solubility	inhibits the effect of tritoqualine	very sensitive to light
